Source: US4678782A, “3S-formamido azetidinone antibacterial agents, their preparation and use” (Beecham Group p.l.c., priority 1982, dated 1987)

Assays:
Type in all cases: cell-based
S. aureus Russell = test: standard microtitre (MIC) test, S. aureus Russell; details: Staphylococcus aureus
From the text: (§1) In a standard microtitre (MIC) test, the compound of Example 14 gave the following data: […]

E. cloacae N1 = test: standard microtitre (MIC) test, E. cloacae N1; details: Enterobacter cloacae
From the text: as §1

E. coli JT4 = test: standard microtitre (MIC) test, E. coli JT4; details: Escherichia coli
From the text: as §1

E. coli NCTC 10418 = test: standard microtitre (MIC) test, E. coli NCTC 10418; details: Escherichia coli, NCTC10418
From the text: as §1

S. marcescens US32 = test: standard microtitre (MIC) test, S. marcescens US32; details: Serratia marcescens
From the text: as §1

P. morganii = test: standard microtitre (MIC) test, P. morganii; details: Morganella morganii
From the text: as §1

K. aerogenes A = test: standard microtitre (MIC) test, K. aerogenes A; details: Klebsiella aerogenes
From the text: as §1

`CCN1CCN(C(=O)N[C@@H](C(=O)NC2(NC=O)CN(S(=O)(=O)O)C2=O)c2ccccc2)C(=O)C1=O` (stereo partly drawn) [Example 14, (3RS)-Potassium-3-[D-2-(4-Ethyl-2,3-dioxopiperazin-1-yl-carboxamido)-2-phenylacetamido]-3-formamido-2-oxo-azetidine-1-sulphonate] showed an MIC (S. aureus Russell) of 3.2 µg/mL, an MIC (E. cloacae N1) of 12.5 µg/mL and an MIC (E. coli JT4) of 25 µg/mL. The MIC (E. coli NCTC 10418) was 12.5 µg/mL, the MIC (S. marcescens US32) was 12.5 µg/mL and the MIC (P. morganii) was 6.4 µg/mL. The MIC (K. aerogenes A) was 3.2 µg/mL.
